# In ChEMBL document CHEMBL3608259, “Carbonic Anhydrase Glycoinhibitors belonging to the Aminoxysulfonamide Series” (ACS Med Chem Lett, 2015):
# Molecular target: Carbonic anhydrase 9 (Homo sapiens, UniProt Q16790)
# Description: Inhibition of human recombinant carbonic anhydrase-9 catalytic domain by stopped-flow CO2 hydration assay
row,SMILES,Ki [µM]
1,NS(=O)(=O)ONC(=O)OCc1ccccc1,0.057
2,NOS(=O)(=O)NC(=O)OCc1ccccc1,0.077
3,NOS(=O)(=O)NC1C=C[C@H](O)[C@@H](CO)O1 (mixture of isomers),0.085
4,CC(=O)OC[C@H]1OC(NS(=O)(=O)ON)C=C[C@@H]1OC(C)=O (mixture of isomers),0.09
5,CC(=O)OC[C@H]1OC(NS(=O)(=O)ON)C=C[C@H]1OC(C)=O (mixture of isomers),0.075
6,CC(=O)O[C@H]1C=CC(NS(=O)(=O)ON)OC1 (mixture of isomers),0.075
7,CC(=O)O[C@@H]1C=CC(NS(=O)(=O)ON)OC1 (mixture of isomers),0.086
8,CC(=O)O[C@@H]1C=CC(NS(=O)(=O)ON)O[C@H]1C (mixture of isomers),0.086
9,NOS(=O)(=O)NC1C=C[C@@H](O)[C@@H](CO)O1 (mixture of isomers),0.061
10,NOS(=O)(=O)NC1C=C[C@H](O)CO1 (mixture of isomers),0.091
11,NOS(=O)(=O)NC1C=C[C@@H](O)CO1 (mixture of isomers),0.074
12,C[C@@H]1OC(NS(=O)(=O)ON)C=C[C@H]1O (mixture of isomers),0.061
